Experimental data published in US10464926B2, “Heterobicyclic compounds and their use for the treatment of tuberculosis” (OTSUKA PHARMACEUTICAL CO., LTD., priority 2014, dated 2019).

melting point | SMILES
204 to 205 °C | O=C1CCc2c(OC[C@]3(O)CCN(c4ccc(F)cc4Cl)C[C@@H]3F)ccc(F)c2N1 (relative stereo)
161.3 to 161.4 °C | O=C1CCc2c(OC[C@]3(O)CCN(c4ccccc4Cl)C[C@H]3O)ccc(F)c2N1
167 to 169 °C | O=C1CCc2c(OC[C@]3(O)CCN(c4c(F)cc(OC(F)F)cc4F)C[C@H]3O)ccc(F)c2N1 (relative stereo) [Example 314]
192.6 to 193.4 °C | O=C1CCc2c(OC[C@]3(O)CCN(c4ccc(Cl)cc4F)C[C@H]3O)cc(F)c(F)c2N1 [Example 324]
216.7 to 217 °C | CC(C)Oc1cc(N2CCC(O)(COc3ccc(F)c4c3CCC(=O)N4)CC2)c(F)cc1Cl
192 to 192.3 °C | O=C1CCc2c(OCC3(O)CCN(c4ccc(Cl)cn4)CC3)ccc(F)c2N1
188 to 189 °C | O=C1CCc2c(OC[C@]3(O)CCN(c4c(F)cc(F)cc4Cl)C[C@H]3O)ccc(F)c2N1 [Example 304]
258.8 to 259 °C | Cc1cc(Cl)cc(F)c1N1CCC(O)(COc2ccc(F)c3c2CCC(=O)N3)CC1
276 to 277 °C | O=C1CCc2c(OCC3(C(=O)O)CCN(c4ncc(Cl)cc4Cl)CC3)ccc(F)c2N1
195.7 to 196.4 °C | COc1cc(F)c(N2CCC(O)(COc3ccc(F)c4c3CCC(=O)N4)CC2)c(F)c1
190 to 191 °C | O=C1CCc2c(OC[C@]3(O)CCN(c4ccc(Cl)cc4F)C[C@@H]3F)ccc(F)c2N1 (relative stereo)
222.6 to 222.7 °C | COc1cc(N2CCC(O)(COc3ccc(F)c4c3CCC(=O)N4)CC2)ccc1Cl
180.6 to 181 °C | CCOc1cc(F)c(N2CCC(O)(COc3ccc(Cl)c4c3CCC(=O)N4)CC2)c(F)c1
190.4 to 190.5 °C | O=C1CCc2c(OCC3(O)CCN(c4cc(OC(F)(F)F)ccc4Cl)CC3)ccc(F)c2N1
169 to 170 °C | O=C1CCc2c(OCC3(O)CCN(c4cccc(Cl)c4)CC3)ccc(F)c2N1
214 to 215 °C | O=C1CCc2c(NCC3(O)CCN(c4ccc(F)cc4Cl)CC3)ccc(F)c2N1
160.9 to 163.1 °C | NC1(COc2ccc(F)c3c2CCC(=O)N3)CCN(c2ncc(F)cc2F)CC1
176.5 to 176.9 °C | CC(C)c1ccc(N2CCC(O)(COc3ccc(F)c4c3CCC(=O)N4)CC2)c(Cl)c1
162.8 to 164 °C | CO[C@H]1CN(c2ncc(Cl)cc2Cl)CC[C@]1(O)COc1ccc(F)c2c1CCC(=O)N2 (relative stereo)
237.7 to 238.6 °C | O=C1CCc2c(OC[C@]3(O)CCN(c4cc(Cl)c(F)cc4Cl)C[C@H]3O)ccc(Cl)c2N1
128.7 to 130.7 °C | COCCOCCOc1ccc(N2CCC(O)(COc3ccc(F)c4c3CCC(=O)N4)CC2)c(F)c1
222.9 to 223 °C | O=C1CCc2c(OCC3(O)CCN(c4ccc(Cl)cc4F)CC3)ccc(Cl)c2N1
177.7 to 178 °C | O=C1CCc2c(OC[C@]3(O)CCN(c4ccccc4F)C[C@H]3O)ccc(F)c2N1
197.4 to 203.9 °C | O=C1CCc2c(OCC3(O)CCN(c4ncc(Br)cc4F)CC3)ccc(F)c2N1
190.8 to 191.1 °C | CCOc1cc(F)c(N2CCC(O)(COc3ccc(F)c4c3CCC(=O)N4)CC2)cc1OC
194 to 195 °C | O=C1CCc2c(OC[C@]3(O)CCN(c4ccc(Cl)cc4F)C[C@H]3F)ccc(F)c2N1 (relative stereo)
228.8 to 229.5 °C | O=c1ccc2c(OC[C@]3(O)CCN(c4c(F)cc(Cl)cc4F)C[C@H]3O)ccc(Cl)c2[nH]1
206 to 206.9 °C | N#Cc1cc(F)ccc1N1CCC(O)(COc2ccc(F)c3c2CCC(=O)N3)CC1

melting point | SMILES
201.3 to 201.9 °C | COc1ccc(N2CCC(O)(COc3ccc(F)c4c3CCC(=O)N4)CC2)c(F)c1
183 °C | COC(=O)NC1(COc2ccc(F)c3c2CCC(=O)N3)CCN(c2ncc(Cl)cc2Cl)CC1
177 to 177.4 °C | O=C1CCc2c(OCC3(O)CCN(c4ccccc4)CC3)ccc(F)c2N1
181.8 to 181.9 °C | O=C1CCc2c(OCC3(O)CCN(c4ccc(OC(F)(F)F)cc4Cl)CC3)ccc(F)c2N1
193 to 194.7 °C | O=C1CCc2c(OCC3(O)CCN(c4ncc(C(F)(F)F)cc4Cl)CC3)ccc(Cl)c2N1
199 to 202 °C | CCOc1cc(F)c(N2CC[C@@](O)(COc3ccc(F)c4c3CCC(=O)N4)[C@H](O)C2)c(F)c1 (relative stereo) [Example 316]
207 to 208 °C | N#Cc1cc(F)ccc1N1CCC(COc2ccc(F)c3c2CCC(=O)N3)(ON)CC1
207.9 to 208.8 °C | CCOc1cc(F)c(N2CCC(O)(COc3ccc(F)c4c3CCC(=O)N4)CC2)c(F)c1
198 to 199 °C | O=C1CCc2c(OCC3(O)CCN(c4nccc5ccccc45)CC3)ccc(F)c2N1
220.5 to 221.3 °C | O=C1CCc2c(OC[C@]3(O)CCN(c4ccc(Cl)cc4F)C[C@H]3O)cc(F)c(F)c2N1 (relative stereo) [Example 330]
230.9 to 231.2 °C | O=C1CCc2c(OCC3(O)CCN(c4ccc(Cl)c(Cl)c4)CC3)ccc(F)c2N1
204.5 to 204.6 °C | O=C1CCc2c(OC[C@]3(O)CCN(c4c(F)cc(Br)cc4F)C[C@H]3O)cc(F)c(F)c2N1
247.4 to 247.5 °C | O=c1ccc2c(OC[C@]3(O)CCN(c4c(F)cc(Cl)cc4F)C[C@H]3O)ccc(F)c2[nH]1 [Example 367]
191.4 to 191.7 °C | COc1cc(N2CCC(O)(COc3ccc(Cl)c4c3CCC(=O)N4)CC2)c(F)cc1F
218 °C | N#CC1(COc2ccc(F)c3c2CCC(=O)N3)CCN(c2ncc(Cl)cc2Cl)CC1
173.3 to 173.5 °C | CC(C)Oc1cc(N2CCC(O)(COc3ccc(Cl)c4c3CCC(=O)N4)CC2)c(F)cc1Cl
169 to 170.4 °C | CCOc1cnc(N2CCC(O)(COc3ccc(Cl)c4c3CCC(=O)N4)CC2)c(Cl)c1
228.7 to 228.9 °C | COc1cc(N2CCC(O)(COc3ccc(Cl)c4c3CCC(=O)N4)CC2)c(F)cc1Cl
163.1 to 164.6 °C | O=C1CCc2c(OC[C@]3(O)CCN(c4ccc(OC(F)F)cc4)C[C@H]3O)ccc(F)c2N1
186 to 187 °C | CO[C@H]1CN(c2ncc(Cl)cc2Cl)CC[C@@]1(O)COc1ccc(F)c2c1CCC(=O)N2 (relative stereo)
160.7 to 160.9 °C | CSc1ccc(N2CCC(O)(COc3ccc(Cl)c4c3CCC(=O)N4)CC2)c(Cl)c1
184.1 to 185.1 °C | O=C1CCc2c(OC[C@]3(O)CCN(c4ccc(Cl)cc4Cl)C[C@H]3O)ccc(Cl)c2N1
159.2 to 160 °C | O=C1CCc2c(OCC3(O)CCN(c4cc(OCCOc5ccc(F)cc5)c(Cl)cc4F)CC3)ccc(F)c2N1
181 to 182 °C | COC1(COc2ccc(F)c3c2CCC(=O)N3)CCN(c2ncc(Cl)cc2Cl)CC1
194.9 to 195 °C | CC(C)c1ccc(N2CCC(O)(COc3ccc(F)c4c3CCC(=O)N4)CC2)cc1
198 to 199 °C | O=C1CCc2c(OC[C@]3(O)CCN(c4c(F)cc(F)cc4F)C[C@H]3O)ccc(F)c2N1 (relative stereo) [Example 305]
166 °C | O=C1CCc2c(OC[C@]3(O)CCN(c4c(F)cc(OC(F)F)cc4F)C[C@H]3O)ccc(F)c2N1 [Example 315]

SMILES | melting point
O=C1CCc2c(OC[C@@]3(O)CCN(c4ccc(Cl)cc4F)C[C@@H]3O)ccc(F)c2N1 (relative stereo) | 191.9 to 193.5 °C
